Experimental data taken from patent US11767303B2, “Compounds and methods for inhibiting viral replication and methods of treating and preventing flaviviral infections” (priority 2020, dated 2023).

Legend:
ZIKV NS3 = assay: Western blot of ZIKV NS3 and polyprotein precursor in infected A549 cells; type: cell-based, Zika virus; settings: MOI 0.1, 48 hrs
Protocol: FIGS. 6A-6C show mechanism of action studies. […] Viral titers were quantified using plaque forming assay 48 hrs post-infection. DMSO was added to control. N=3. ***, p<0.001. […] N=3. […] Right, Band intensities of PP and NS3 normalized to the GAPDH control (N=3). […] Li et al., “Existing Drugs as Broad-Spectrum and Potent Inhibitors for Zika Virus by Targeting NS2B-NS3 Interaction,” Cell Res. 27:1046-1064 (2017), which is hereby incorporated by reference in its entirety. At 48 hrs post-infection, cells were washed, harvested, and protected by protease inhibitor cocktail prior to lysis by SDS-PAGE loading buffer. Upon incubation at 95° C. for 10 min, sample was subjected to Western blot analysis with anti-ZIKV NS3 (GTX133309, GeneTex, Inc.) and anti-GAPDH (CB1001, EMD Millipore) as primary antibodies. Error bars in all panels represent the standard deviations at each condition.
Western Blot. Western blot was performed using anti-ZIKV NS3 (GTX133309, GeneTex, Inc.) and anti-GAPDH (CB1001, EMD Millipore) antibodies, as described previously. Li et al., “Existing Drugs as Broad-Spectrum and Potent Inhibitors for Zika Virus by Targeting NS2B-NS3 Interaction,” Cell Res. 27:1046-1064 (2017) and Brecher et al., “A Conformational Switch High-Throughput Screening Assay and Allosteric Inhibition of the Flavivirus NS2B-NS3 Protease,” PLoS Pathog. […]

ZIKV = assay: Immunofluorescence assay of viral protein production in A549 cells; type: cell-based, Zika virus; settings: IFA with anti-E 4G2
Protocol: Immunofluorescence Assay. The immunofluorescence assay was performed using ZIKV-infected cells treated with DMSO or JMX0207, as described previously. Li et al., “Existing Drugs as Broad-Spectrum and Potent Inhibitors for Zika Virus by Targeting NS2B-NS3 Interaction,” Cell Res. 27:1046-1064 (2017); Li et al., “Erythrosin B is a Potent and Broad-Spectrum Orthosteric Inhibitor of the Flavivirus NS2B-NS3 Protease,” Antiviral Res. 150:217-225 (2018), which are hereby incorporated in their entirety. A mouse monoclonal pan anti-E antibody 4G2 (ATCC) and a DyLight® 488 goat anti-mouse IgG (ImmunoReagents, Inc.) were used to monitor viral E protein expression, as described previously. Li et al., “Existing Drugs as Broad-Spectrum and Potent Inhibitors for Zika Virus by Targeting NS2B-NS3 Interaction,” Cell Res. 27:1046-1064 (2017); Li et al., “Erythrosin B is a Potent and Broad-Spectrum Orthosteric Inhibitor of the Flavivirus NS2B-NS3 Protease,” Antiviral Res. 150:217-225 (2018), which are hereby incorporated in their entirety.

3D organoids = assay: Toxic effect on 3D organoids; type: cell-based, human; settings: 1.5 μM
Description: Culturing of human iPSCs. Human iPSC F11350.1 culture was maintained in feed-free conditions using mTeSR1 medium (StemCell Technologies #85851) with 5× supplement (StemCell Technologies #85852). Cells were maintained on six-well plates coated with human embryonic stem cell-qualified Matrigel at a 1:60 dilution (Corning Catalog #354277) and passaged with ReLeSR (StemCell Technologies #05872). Cortical 3D organoids were generated based on the protocol described by Yoon et al. Yoon et al., “Reliability of Human Cortical Organoid Generation,” Nat. Methods. […] Briefly, iPSCs were dissociated with accutase (ThermoFisher #A1110501) and then plated at a density of 3×10^6 cells per well in AggreWell 800 24-well plate (StemCell Technologies #34811) in Essential 8™ medium (ThermoFisher #A1517001) supplemented with 10 μM rock inhibitor (Tocris #Y27632). The plate was centrifuged at 100×g for 3 min and incubated at 37° C. overnight. […]
To evaluate if JMX0207 protects organoids from ZIKV infections, a full-length infectious ZIKV clone expressing Venus fluorescent protein (ZIKV-Venus) was first generated. […] ZIKV infection was quantified by a plaque forming unit (PFU) assay at 5 dpi and by fluorescence imaging at 7 dpi, respectively.

In the case of O=C(Nc1ccc([N+](=O)[O-])cc1Cl)c1cccc([N+](=O)[O-])c1O [JMX0207, N-(2-Chloro-4-nitrophenyl)-2-hydroxy-3-nitrobenzamide], the “unprocessed viral polyprotein precursor (PP)” value (ZIKV NS3) is reported as “dose-dependent increase of a protein with high molecular weight”, the “viral NS3 protein production” value (ZIKV NS3) is reported as “dose-dependent reduction of viral NS3 protein production” and the ZIKV antigen production (ZIKV) is reported as “greatly reduced ZIKV antigen production in A549 cells in a dose-dependent manner”. For the same compound, the “toxic effect on the 3D organoids” value (3D organoids) was “did not have any toxic effect”.
